Laboratory results as given in paper PMC5762686, “Structural ensemble-based docking simulation and biophysical studies discovered new inhibitors of Hsp90 N-terminal domain” (Scientific Reports, 2018).
Like-named read-outs stand apart in the source and are kept apart here.

Key:
Hsp90N [1] = system: Hsp90N; parameters: method as in PMID 19519743; conditions: BindingDB; cited from earlier work
Hsp90N [2] = system: Hsp90N; parameters: method as in PMID 27899599; conditions: PubChem BioAssay database AID: 712; cited from earlier work
Hsp90 = system: Hsp90; parameters: method as in PMID 16854066; conditions: fluorescence polarization; cited from earlier work
Hsp90N [3] = target: T1, Hsp90N (Homo sapiens, UniProt P07900); assay: Differential scanning fluorimetry (DSF), change of Tm; format: binding; conditions: apo Tm 44.4 °C, Hsp90N 2 μM, inhibitor 200 μM
T1 construct: contains DNA corresponding to residues 1–235 of human Hsp90α; made in house; host or cells: Escherichia coli BL21 (DE3)
Experimental: We also measured the change in the Tm value using differential scanning fluorimetry (DSF) to support direct binding (Fig. 2C).
DSF using a RT-PCR system (CFX connect, BioRad) assessed the stability of Hsp90N in the absence and presence of the hit compounds that were identified by 2D NMR[75]. Once Sypro-Orange (5×) was added into the solution of Hsp90N with each hit compound, the fluorescence from the dye was measured with excitation at 492 nm and emission at 610 nm in a temperature-dependent manner from 30 to 90 °C. The concentrations for Hsp90N and inhibitors were 2 and 200 μM, respectively. As a control, DMSO was mixed with the protein, and the fluorescence was measured with an identical procedure. The mid-point of the melting temperature, Tm, was deduced by calculating the temperature that maximizes the differential curve of the profiles.

## Oc1ccc(-c2n[nH]c(=S)n2-c2ccccc2)c(O)c1 [ZINC01264822]
Hsp90N [1]
  IC50: 0.5 nM

## Cc1cc(SCC(N)=O)nc(SCC(=O)c2ccccc2)n1 [ZINC00421600]
Hsp90N [2]
  IC50: 50000 nM

## CO[C@H]1/C=C\C=C(/C)C(=O)NC2=CC(=O)C(NCCN(C)C)=C(C[C@@H](C)C[C@H](OC)[C@H](O)[C@@H](C)/C=C(\C)[C@@H]1OC(N)=O)C2=O [17-DMAG]
Hsp90
  IC50: 62 nM
Hsp90N [3]
  elevated Tm values: 11.3

## CCc1cc(-c2n[nH]cc2-c2ccc3c(c2)OCO3)c(O)cc1O [ZINC18130036]
Hsp90N [2]
  IC50: 2000 nM
